The text below walks through data of publication PMC8542630 (Cell chemical biology, 2021).

Assay [1] deals with GFP-Sc-Dyn AAA4 E/Q (E2819Q) (Saccharomyces cerevisiae, UniProt P36022, E2819Q). Briefly: Microscale thermophoresis. Type of assay: binding, S. cerevisiae. A general note: MST reads how a fluorescent partner responds to local heating, with and without ligand.
For assay [2], the target named is GFP-Sc-Dyn AAA3 E/Q (E2488Q) (Saccharomyces cerevisiae, UniProt P36022, E2488Q). Briefly: NADH-coupled steady-state ATPase assay, GFP-Sc-Dyn AAA3 E/Q mutant. The assay is classed as biochemical, S. cerevisiae.
Sequence of GFP-Sc-Dyn AAA3 E/Q (E2488Q) (Saccharomyces cerevisiae, UniProt P36022, E2488Q) (P36022 1219-4092 E2488Q): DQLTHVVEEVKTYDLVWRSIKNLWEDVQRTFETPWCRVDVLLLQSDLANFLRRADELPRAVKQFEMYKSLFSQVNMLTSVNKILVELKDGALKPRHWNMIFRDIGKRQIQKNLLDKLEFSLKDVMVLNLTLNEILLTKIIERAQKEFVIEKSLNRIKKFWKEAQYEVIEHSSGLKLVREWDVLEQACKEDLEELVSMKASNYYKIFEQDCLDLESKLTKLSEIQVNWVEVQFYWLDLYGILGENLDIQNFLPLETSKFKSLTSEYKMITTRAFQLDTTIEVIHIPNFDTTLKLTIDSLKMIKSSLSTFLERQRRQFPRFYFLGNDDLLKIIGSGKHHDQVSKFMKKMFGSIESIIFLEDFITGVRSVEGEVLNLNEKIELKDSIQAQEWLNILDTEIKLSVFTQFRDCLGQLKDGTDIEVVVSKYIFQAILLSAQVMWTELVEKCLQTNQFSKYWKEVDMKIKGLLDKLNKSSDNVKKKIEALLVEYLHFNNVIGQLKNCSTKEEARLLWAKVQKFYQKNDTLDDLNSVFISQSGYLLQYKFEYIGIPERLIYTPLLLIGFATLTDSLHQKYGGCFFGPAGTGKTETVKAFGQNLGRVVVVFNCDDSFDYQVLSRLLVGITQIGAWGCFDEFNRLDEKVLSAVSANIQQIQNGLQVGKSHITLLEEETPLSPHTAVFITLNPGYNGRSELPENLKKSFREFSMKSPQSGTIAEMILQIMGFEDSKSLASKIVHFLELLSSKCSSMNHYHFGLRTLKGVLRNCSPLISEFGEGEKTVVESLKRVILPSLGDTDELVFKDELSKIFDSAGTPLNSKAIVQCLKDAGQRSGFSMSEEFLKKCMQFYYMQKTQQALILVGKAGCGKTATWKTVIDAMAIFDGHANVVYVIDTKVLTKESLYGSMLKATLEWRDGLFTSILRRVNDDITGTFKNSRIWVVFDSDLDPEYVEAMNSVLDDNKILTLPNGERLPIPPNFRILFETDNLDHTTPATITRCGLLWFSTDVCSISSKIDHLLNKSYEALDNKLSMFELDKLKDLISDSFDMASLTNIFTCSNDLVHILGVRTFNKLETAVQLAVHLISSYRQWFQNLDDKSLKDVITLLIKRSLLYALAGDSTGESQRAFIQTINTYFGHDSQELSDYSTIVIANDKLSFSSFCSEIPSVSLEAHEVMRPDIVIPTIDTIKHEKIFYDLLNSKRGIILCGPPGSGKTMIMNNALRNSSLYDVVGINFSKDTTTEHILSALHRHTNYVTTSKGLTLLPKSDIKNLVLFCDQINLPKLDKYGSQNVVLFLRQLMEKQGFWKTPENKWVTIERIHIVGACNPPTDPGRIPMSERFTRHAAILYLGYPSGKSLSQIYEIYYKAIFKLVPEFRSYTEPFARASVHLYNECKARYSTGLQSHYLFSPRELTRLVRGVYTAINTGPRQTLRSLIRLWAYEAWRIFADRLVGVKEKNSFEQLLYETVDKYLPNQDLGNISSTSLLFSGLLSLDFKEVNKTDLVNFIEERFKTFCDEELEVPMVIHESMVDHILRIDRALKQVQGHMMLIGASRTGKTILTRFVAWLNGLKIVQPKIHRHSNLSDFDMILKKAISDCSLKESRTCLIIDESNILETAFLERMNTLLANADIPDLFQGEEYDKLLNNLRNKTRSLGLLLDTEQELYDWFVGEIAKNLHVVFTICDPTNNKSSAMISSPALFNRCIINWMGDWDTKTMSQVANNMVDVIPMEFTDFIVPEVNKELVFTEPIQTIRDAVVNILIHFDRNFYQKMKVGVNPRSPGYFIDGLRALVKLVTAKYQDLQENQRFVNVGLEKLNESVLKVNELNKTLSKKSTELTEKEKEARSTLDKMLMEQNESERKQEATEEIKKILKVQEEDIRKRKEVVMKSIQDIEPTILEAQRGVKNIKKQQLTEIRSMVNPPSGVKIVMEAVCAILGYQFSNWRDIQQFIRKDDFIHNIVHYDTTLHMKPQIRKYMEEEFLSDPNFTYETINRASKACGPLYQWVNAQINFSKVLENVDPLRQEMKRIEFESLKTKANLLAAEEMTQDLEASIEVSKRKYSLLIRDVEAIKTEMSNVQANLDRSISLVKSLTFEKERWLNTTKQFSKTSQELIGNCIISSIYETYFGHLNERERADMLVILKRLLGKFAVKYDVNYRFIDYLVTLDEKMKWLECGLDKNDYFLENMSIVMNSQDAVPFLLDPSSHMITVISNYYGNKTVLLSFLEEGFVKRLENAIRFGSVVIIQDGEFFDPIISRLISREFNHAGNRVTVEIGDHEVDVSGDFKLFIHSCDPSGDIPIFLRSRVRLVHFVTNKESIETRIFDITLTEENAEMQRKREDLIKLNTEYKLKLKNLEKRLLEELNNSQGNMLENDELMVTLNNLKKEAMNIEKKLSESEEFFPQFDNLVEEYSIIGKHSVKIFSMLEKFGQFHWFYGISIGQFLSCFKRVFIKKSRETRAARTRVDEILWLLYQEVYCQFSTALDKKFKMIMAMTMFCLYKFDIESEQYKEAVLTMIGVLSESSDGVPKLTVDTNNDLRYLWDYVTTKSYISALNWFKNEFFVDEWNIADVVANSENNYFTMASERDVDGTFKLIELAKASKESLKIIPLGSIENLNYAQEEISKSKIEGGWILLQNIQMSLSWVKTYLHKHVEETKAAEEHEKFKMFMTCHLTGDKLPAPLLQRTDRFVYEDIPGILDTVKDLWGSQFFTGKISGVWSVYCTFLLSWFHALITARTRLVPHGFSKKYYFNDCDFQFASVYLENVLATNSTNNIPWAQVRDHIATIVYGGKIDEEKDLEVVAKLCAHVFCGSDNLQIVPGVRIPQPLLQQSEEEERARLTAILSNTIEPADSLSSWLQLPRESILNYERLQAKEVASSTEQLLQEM
Assay [3] deals with GFP-Sc-Dyn AAA3 E/Q (E2488Q). The assay is described as above. The assay is classed as biochemical, S. cerevisiae. As to conditions: 1 mM MgATP, n=3.
In the next assay the target is T1, Sc-Dyn-lyso (Saccharomyces cerevisiae, UniProt P36022).
T1 sequence (P36022 1758-2992 limits assumed): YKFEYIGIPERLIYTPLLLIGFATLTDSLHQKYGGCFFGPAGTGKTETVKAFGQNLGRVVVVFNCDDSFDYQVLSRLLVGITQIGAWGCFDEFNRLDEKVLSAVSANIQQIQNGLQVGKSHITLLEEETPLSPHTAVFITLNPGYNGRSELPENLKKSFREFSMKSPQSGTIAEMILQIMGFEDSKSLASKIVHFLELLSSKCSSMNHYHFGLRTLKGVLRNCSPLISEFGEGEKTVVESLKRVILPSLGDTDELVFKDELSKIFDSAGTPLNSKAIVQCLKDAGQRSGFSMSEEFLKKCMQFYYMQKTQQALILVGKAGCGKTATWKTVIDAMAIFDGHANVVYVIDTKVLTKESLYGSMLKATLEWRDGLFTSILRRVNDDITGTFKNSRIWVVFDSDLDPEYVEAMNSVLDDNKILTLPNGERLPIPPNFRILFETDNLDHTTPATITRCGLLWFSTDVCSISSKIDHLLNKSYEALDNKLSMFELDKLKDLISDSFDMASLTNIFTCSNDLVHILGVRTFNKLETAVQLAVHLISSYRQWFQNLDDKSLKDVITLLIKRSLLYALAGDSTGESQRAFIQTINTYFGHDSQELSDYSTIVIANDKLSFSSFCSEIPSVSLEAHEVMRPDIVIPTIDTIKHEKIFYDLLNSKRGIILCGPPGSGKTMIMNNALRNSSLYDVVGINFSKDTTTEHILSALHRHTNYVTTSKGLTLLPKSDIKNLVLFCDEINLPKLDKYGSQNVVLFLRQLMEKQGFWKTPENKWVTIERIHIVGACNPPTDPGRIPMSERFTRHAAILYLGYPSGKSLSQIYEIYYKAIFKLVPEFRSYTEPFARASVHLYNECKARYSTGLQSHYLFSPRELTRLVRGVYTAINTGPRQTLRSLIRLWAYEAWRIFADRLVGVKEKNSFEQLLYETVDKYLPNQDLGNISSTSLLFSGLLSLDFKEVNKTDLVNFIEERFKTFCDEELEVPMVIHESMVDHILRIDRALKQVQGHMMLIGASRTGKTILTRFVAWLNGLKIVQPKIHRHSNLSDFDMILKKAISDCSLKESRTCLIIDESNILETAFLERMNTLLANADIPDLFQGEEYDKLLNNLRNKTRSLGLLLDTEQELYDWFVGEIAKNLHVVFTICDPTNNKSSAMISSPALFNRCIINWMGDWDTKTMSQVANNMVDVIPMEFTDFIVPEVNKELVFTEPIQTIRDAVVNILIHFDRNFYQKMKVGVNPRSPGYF
T1 sequence (P36022 3301-4092 limits assumed): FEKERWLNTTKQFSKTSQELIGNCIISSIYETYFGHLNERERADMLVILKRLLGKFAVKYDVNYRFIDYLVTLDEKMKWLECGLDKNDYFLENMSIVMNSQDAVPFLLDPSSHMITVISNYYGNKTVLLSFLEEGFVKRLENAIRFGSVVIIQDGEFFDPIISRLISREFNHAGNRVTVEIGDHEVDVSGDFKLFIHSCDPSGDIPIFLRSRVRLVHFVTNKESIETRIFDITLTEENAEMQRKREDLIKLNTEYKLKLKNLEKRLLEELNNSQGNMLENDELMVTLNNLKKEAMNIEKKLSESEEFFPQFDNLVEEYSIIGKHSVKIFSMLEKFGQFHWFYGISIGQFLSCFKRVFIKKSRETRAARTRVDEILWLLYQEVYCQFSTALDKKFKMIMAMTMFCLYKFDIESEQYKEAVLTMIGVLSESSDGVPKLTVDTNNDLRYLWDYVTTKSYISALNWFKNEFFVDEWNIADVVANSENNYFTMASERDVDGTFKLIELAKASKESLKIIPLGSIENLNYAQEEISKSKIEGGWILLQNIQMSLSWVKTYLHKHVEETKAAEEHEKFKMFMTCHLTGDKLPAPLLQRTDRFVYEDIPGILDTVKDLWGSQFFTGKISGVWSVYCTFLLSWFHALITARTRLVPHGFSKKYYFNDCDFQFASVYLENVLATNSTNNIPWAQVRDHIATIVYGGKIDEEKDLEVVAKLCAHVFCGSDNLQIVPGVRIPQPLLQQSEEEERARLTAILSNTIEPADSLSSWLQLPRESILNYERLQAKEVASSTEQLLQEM
Briefly: Microscale thermophoresis. Type of assay: binding, S. cerevisiae.

The target of the next assay is Dm-spastin (Drosophila melanogaster, UniProt Q8I0P1, DEL311-372). Briefly: NADH-coupled steady-state ATPase assay, Dm-spastin. The assay is classed as biochemical, D. melanogaster.
Assay [4] has as its target GFP-Sc-Dyn V2391S/M2732S (AAA3_V-S/AAA4_M-S) (Saccharomyces cerevisiae, UniProt P36022, M2732S/V2391S). Briefly: Microscale thermophoresis. Type of assay: binding.

Structures are written as SMILES. A value given as a limit tells only on which side of the number the result lay.

Sequence of GFP-Sc-Dyn AAA4 E/Q (E2819Q) (P36022 1219-4092 E2819Q): as the sequence (P36022 1219-4092 E2488Q) above, with Q1270E, E1601Q counted along it
Sequence of GFP-Sc-Dyn V2391S/M2732S (AAA3_V-S/AAA4_M-S) (P36022 1219-4092 V2391S/M2732S): as the sequence (P36022 1219-4092 E2488Q) above, with V1173S, Q1270E, M1514S counted along it

In general, EC50 refers to the midpoint of the concentration-response curve. Higher therefore signals lower potency in that assay. A word on the IC50: it is the midpoint of a concentration-inhibition curve. On to `N#Cc1c(C2(c3ccc(Cl)cc3)CC2)nn2c(=O)c(Oc3cccc(Br)c3)c[nH]c12` [compound 20, 6-(3-bromophenoxy)-2-[1-(4-chlorophenyl)cyclopropyl]-7-oxo-4H-pyrazolo[1,5-a]pyrimidine-3-carbonitrile], for which the EC50 was greater than 200 µM in assay [1], 22 ± 5.3 µM at Sc-Dyn-lyso and greater than 100 µM in assay [4]. Also, the half-maximal inhibitory concentration (IC50) in assay [2] came to 8.2 ± 1.4 µM. Further, the “IC50 fold lower than that of GFP-Sc-Dyn, AAA3 E/Q mutant” value in assay [3] is reported as ~ 2 fold. The “Reduction of ATPase activity, Dm-spastin” value at Dm-spastin (20 μM, 1 mM MgATP) is on record as less than 25%. Besides, at Dm-spastin (compound 20 μM, mean ± SD, n=3), the “Percent steady-state ATPase activity, Dm-spastin” value turned out to be 88 ± 4.4%.
